Test results taken from ChEMBL document CHEMBL1201862, “PubChem BioAssay data set” (2004).
Active and inactive are the calls of the source.

Experiments:
Leucine aminopeptidase = molecular target: T1, Leucine aminopeptidase (Plasmodium falciparum 3D7, UniProt Q8IL11); assay: P. falciparum M17LAP inhibitors, primary screen, biochemical, fluorogenic H-Leu-NHMec substrate, 1536-well (AID 1619); type: functional
T1 sequence (Q8IL11 whole entry): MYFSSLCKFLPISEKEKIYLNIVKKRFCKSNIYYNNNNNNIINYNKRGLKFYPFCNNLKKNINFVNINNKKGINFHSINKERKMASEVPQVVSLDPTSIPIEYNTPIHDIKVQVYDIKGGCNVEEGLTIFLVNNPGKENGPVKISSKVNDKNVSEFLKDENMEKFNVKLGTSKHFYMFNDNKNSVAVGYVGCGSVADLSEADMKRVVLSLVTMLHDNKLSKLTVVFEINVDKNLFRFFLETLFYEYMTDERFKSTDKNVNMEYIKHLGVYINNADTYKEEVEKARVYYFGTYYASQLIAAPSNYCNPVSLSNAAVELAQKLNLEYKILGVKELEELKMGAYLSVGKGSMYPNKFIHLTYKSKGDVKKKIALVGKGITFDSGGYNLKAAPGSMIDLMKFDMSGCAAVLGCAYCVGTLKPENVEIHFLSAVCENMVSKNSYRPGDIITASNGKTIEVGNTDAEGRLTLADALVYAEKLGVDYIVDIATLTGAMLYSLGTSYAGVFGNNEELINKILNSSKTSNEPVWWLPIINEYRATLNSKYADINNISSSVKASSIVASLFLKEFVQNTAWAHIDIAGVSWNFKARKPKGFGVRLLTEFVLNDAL

Aspartyl aminopeptidase = molecular target: T2, Aspartyl aminopeptidase (Plasmodium falciparum 3D7, UniProt Q8I2J3); assay: Counterscreen for inhibitors of M1 and M17 aminopeptidases: QFRET-based biochemical high throughput dose response assay for inhibitors of the Plasmodium falciparum M18 Aspartyl Aminopeptidase (PFM18AAP). [Related PubChem assays: 1619 (Screening assay (M17LAP inhibitors).), 1445 (Screening assay (M1AAP inhibitors).)]
T2 sequence (Q8I2J3 whole entry): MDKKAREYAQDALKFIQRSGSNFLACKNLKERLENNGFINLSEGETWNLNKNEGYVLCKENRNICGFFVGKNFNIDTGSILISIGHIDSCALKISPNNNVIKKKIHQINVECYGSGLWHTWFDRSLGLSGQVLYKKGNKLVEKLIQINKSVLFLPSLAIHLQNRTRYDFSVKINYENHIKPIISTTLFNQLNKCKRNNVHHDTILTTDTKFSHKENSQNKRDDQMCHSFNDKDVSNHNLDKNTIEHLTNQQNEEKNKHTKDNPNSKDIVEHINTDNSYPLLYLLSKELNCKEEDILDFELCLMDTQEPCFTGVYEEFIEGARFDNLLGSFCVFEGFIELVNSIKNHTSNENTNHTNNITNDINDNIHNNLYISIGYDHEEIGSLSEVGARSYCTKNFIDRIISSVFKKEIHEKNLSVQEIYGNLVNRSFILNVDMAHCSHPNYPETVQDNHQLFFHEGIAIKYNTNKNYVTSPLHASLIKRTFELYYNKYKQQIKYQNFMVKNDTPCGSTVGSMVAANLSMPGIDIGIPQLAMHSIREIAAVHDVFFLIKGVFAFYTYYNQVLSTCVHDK

Procathepsin L = Procathepsin L (Homo sapiens, UniProt P07711); assay: CTSL1 protease inhibition – biochemical, QFRET, 1536-well, counter-screen for M1/M17 aminopeptidase inhibitor project, dose response (AID 2214)
Estrogen receptor = molecular target: T3, Estrogen receptor (Homo sapiens, UniProt P03372); assay: ERα coactivator recruitment enhancers – biochemical, TR-FRET, ERα LBD, dose response (AID 737)
T3 sequence (P03372 whole entry): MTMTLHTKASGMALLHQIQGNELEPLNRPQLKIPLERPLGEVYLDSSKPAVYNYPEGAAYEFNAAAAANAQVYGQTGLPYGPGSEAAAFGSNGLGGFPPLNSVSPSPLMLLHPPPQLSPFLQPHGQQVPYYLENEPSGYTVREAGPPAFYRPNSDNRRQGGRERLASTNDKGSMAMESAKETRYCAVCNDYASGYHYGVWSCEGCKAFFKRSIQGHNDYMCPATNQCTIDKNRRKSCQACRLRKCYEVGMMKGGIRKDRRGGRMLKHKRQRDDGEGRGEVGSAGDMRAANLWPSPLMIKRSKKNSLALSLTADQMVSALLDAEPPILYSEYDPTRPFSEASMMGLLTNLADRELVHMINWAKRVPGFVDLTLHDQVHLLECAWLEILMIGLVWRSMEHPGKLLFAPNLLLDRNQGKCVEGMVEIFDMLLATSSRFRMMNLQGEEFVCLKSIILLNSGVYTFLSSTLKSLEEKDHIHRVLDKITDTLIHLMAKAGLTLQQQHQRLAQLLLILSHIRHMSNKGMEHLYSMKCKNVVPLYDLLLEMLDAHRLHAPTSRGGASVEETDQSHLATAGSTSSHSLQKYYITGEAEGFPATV

Caspase-3 = molecular target: T4, Caspase-3 (Homo sapiens, UniProt P42574); assay: activators of human procaspase-3 D3A mutant – biochemical, absorbance, PC-3 D3A mutant, counter-screen for dual procaspase-3/7 activator project, dose response (AID 504328)
T4 sequence (P42574 whole entry): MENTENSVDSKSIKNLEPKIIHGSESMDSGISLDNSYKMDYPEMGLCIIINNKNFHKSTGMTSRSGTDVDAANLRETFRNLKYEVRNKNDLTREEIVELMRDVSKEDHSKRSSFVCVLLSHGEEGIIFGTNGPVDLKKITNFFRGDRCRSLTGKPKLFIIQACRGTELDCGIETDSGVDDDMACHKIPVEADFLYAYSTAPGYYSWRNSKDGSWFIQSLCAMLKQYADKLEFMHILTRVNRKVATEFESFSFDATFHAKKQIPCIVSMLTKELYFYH

Caspase-7 = molecular target: T5, Caspase-7 (Homo sapiens, UniProt P55210); assay: potency of procaspase-7 enzyme activation – biochemical, absorbance, human, dual procaspase-3/-7 activator project, dose response (AID 504330)
T5 sequence (P55210 whole entry): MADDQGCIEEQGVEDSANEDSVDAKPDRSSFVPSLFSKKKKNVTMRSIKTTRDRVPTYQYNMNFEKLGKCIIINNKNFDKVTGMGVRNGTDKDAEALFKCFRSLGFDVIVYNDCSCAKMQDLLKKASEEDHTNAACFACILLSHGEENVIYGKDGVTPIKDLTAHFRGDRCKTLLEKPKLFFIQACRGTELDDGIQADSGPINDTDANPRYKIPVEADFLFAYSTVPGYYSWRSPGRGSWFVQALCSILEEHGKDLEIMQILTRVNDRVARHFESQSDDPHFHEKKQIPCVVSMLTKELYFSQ

Cytochrome P450 2D6 = Cytochrome P450 2D6 (Homo sapiens, UniProt P10635); assay: qHTS Assay for Inhibitors and Substrates of Cytochrome P450 2D6. [Related pubchem assays: 410 ]; type: ADME; conditions: read-out: Potency
Cytochrome P450 3A4 = Cytochrome P450 3A4 (Homo sapiens, UniProt P08684); conditions: Potency;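 note: confirmatory qHTS run detecting inhibitors and substrates of CYP3A4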
[1] = luciferase reporter signal suppression in cells – H4 neuroglioma cells, luminescence, dose response (AID 1990); type: functional, cell-based
[2] = Luminescence Cell-Based Dose Response HTS to Identify Inhibitors of 5'UTR Stem-Loop Driven Prion Protein mRNA Translation in H4 Neuroglioblastoma Cells. [Related pubchem assays: 1827 (Project Summary), 1813 (Primary HTS)]; type: functional
[3] = alpha-synuclein stem-loop luciferase translation blockers – H4 neuroglioma cells, luminescence, confirmation (AID 1988); type: functional, cell-based
[4] = molecular target: Epstein-Barr nuclear antigen 1 (Epstein-Barr virus (strain B95-8) (HHV-4) (Human herpesvirus 4), UniProt P03211); assay: inhibition of EBV nuclear antigen 1 DNA binding – biochemical, fluorescence polarization, 1536-well, dose response (AID 2381); set-up: species or system human gammaherpesvirus 4;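 note: fluorescence polarization of a Cy5 DNA probe bound by EBNA-1 protein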
[5] = molecular target: Lytic switch protein BZLF1 (Epstein-Barr virus (strain B95-8) (HHV-4) (Human herpesvirus 4), UniProt P03206); assay: inhibition of BZLF1 ZTA DNA binding – biochemical, fluorescence polarization, Epstein-Barr virus, 1536-well, counter-screen for EBNA-1 inhibitor project, dose response (AID 2377); set-up: species or system human gammaherpesvirus 4;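 note: fluorescence polarization of Cy5-labelled ZRE DNA probe bound by purified Zta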
Bcl-2-like protein 10 = molecular target: T6, Bcl-2-like protein 10 (Homo sapiens, UniProt Q9HD36); assay: Bcl-B/TR3 peptide binding disruption – biochemical, fluorescence polarization, FITC-TR3 peptide, selectivity assay for Bfl-1 inhibitor project, primary screen (AID 748);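 note: fluorescence polarization from a fluorescein-labelled TR3 peptide binding purified Bcl-B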
T6 sequence (Q9HD36 whole entry): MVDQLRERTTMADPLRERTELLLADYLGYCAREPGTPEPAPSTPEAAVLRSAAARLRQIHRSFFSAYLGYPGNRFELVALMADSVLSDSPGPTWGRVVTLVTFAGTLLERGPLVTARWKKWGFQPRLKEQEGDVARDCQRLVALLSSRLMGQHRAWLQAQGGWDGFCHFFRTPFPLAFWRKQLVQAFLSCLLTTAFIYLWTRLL

## COc1ccc(C(C)(C)C)cc1NC(=O)C1CC=CCC1C(=O)O (centres undefined)
Leucine aminopeptidase
  IC50: 3.05 µM (active)
Aspartyl aminopeptidase
  IC50: > 73.5 µM (not active)
Procathepsin L
  IC50: > 59.6 µM (not active)

## O=C(O)CCn1ccnc1-c1ccccc1
Estrogen receptor
  EC50: 12.5 µM (not active)

## C=CCNC1=C(Cl)C(=O)N(c2cccc(Cl)c2Cl)C1=O
Caspase-3
  EC50: > 85.3 µM (inactive)
Caspase-7
  EC50: > 85.3 µM (inactive)

## CC1Cc2c(-c3ccccc3)nc3c(c2CO1)CN(CCOc1ccccc1)CC3 (centres undefined)
Cytochrome P450 2D6
  AC50: 5.01 µM (inconclusive)
Cytochrome P450 3A4
  AC50: 3.98 µM (inconclusive)

## COC(=O)C/C=C1\c2ccccc2C(OC)C1C (centres undefined)
Cytochrome P450 2D6
  AC50: 0.0794 µM (inconclusive)

## CCn1nnc(-c2ccccc2NC(=O)c2cccc(-n3cnnn3)c2)n1
[1]
  EC50: 22.5 µM (active)
[2]
  EC50: 14.9 µM (active)
[3]
  EC50: > 120 µM (not active)
[4]
  IC50: 13.5 µM (not active)
[5]
  IC50: > 111 µM (not active)

## COC(=O)c1cccc(NC(=O)CSc2nc(C)cc(O)n2)c1
Leucine aminopeptidase
  IC50: 7.51 µM (active)
Aspartyl aminopeptidase
  IC50: > 73.5 µM (not active)
Bcl-2-like protein 10
  IC50: 56.8 µM (inactive)
Procathepsin L
  IC50: > 59.6 µM (not active)

## COc1nc(-c2ccc(Cl)cc2)ccc1-c1noc(-c2ccco2)n1
Estrogen receptor
  EC50: 10.9 µM (active)
